Laboratory results as given in US6084072A, “Purified lectin and methods of use” (The Regents of the University of Michigan, priority 1993, dated 2000).
“Also recorded” adds a separate entry of the source.

Tests used:
[1] = biological target: amaranthin (Amaranthus caudatus, UniProt Q71QF2); experiment: Hapten inhibition of amaranthin/asialo-ovine submaxillary mucin precipitation; format: binding; details: for Relative Inhibition potency ACA: N-Acetylgalactosamine = 1
Procedure: Precipitation assays were conducted in 1.5 ml centrifuge tubes by the method of So and Goldstein. Indicated amounts of glycoprotein were added to 80 μg of amaranthin, and the total volume was adjusted to 250 μl with phosphate buffered saline. The tubes were incubated at 37° C. and then kept at 4° C. for 2 days. The precipitates were centrifuged, washed with cold Phosphate buffered saline, dissolved in 0.05 N NaOH and analyzed for protein by the method of Lowery et al. using bovine serum albumin as the standard. Hapten inhibition assays were carried out using 80 μg of amaranthin, 5 μg of asialo-ovine submaxillary mucins, and the indicated sugar concentrations. Inhibition was determined relative to the amount of precipitate formed in the control with no sugar added. All precipitation assays were conducted in duplicate to bring the tolerance within ±5% and the amount of precipitate formed average.

[2] = biological target: T1, PNA (Arachis hypogaea, UniProt P02872); experiment: Hapten inhibition of PNA/asialoglycophorin precipitation; format: binding; details: for Relative Inhibition potency PNA: Galactose = 1, 40 μg PNA, 6 μg asialoglycophorin
T1 construct: purchased E.Y. Laboratories, San Mateo, Calif; (donated by Dr. A. Chu)
T1 sequence (P02872 24-273): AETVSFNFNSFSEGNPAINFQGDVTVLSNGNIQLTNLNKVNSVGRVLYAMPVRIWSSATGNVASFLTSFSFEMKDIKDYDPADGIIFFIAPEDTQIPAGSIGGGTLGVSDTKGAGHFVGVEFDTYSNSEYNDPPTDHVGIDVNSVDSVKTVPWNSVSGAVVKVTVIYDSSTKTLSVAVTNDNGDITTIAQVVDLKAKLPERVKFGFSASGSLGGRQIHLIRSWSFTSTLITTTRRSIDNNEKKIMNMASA
Procedure: Precipitation reactions with PNA were carried out similarly, except that 40 μg of PNA was used. Hapten inhibition studies with PNA used 40 μg of PNA, 6 μg of asialoglycophorin, and the indicated sugar concentrations.

amaranthin, sequence (Q71QF2 entry or part of it): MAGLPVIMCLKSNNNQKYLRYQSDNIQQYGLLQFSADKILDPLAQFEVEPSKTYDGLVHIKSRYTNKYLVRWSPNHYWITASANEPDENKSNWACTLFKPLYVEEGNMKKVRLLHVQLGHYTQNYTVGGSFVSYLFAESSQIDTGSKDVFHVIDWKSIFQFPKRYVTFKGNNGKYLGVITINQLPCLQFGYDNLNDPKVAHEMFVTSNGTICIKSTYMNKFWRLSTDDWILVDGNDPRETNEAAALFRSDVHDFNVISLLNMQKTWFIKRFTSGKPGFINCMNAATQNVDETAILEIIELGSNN

| Compound | IC50 [1] [µM] | Relative Inhibition potency ACA [1] | further results |
| --- | --- | --- | --- |
| COC(=O)[C@H](CO[C@H]1O[C@H](CO)[C@H](O)[C@H](O)[C@H]1NC(C)=O)NC(=O)OCc1ccccc1 [3-O-(2-N-acetyl-α-D-galactopyranosyl-N-(benzyloxcarbonyl)-L-serinemethyl ester] | 53 | 15 | – |
| CO[C@H]1[C@@H](O)[C@@H](CO)O[C@@H](O[C@H]2[C@@H](O)[C@@H](CO)O[C@H](OCc3ccccc3)[C@@H]2NC(C)=O)[C@@H]1O [3-O-Methyl Galβ1,3GalNAcα-O-benzyl] | 2 | 395 | Relative Inhibition potency PNA [2]: < 10 |
| CC(=O)N[C@H]1[C@@H](OCc2ccccc2)O[C@H](CO)[C@H](O)[C@@H]1O[C@@H]1O[C@H](C)[C@H](O)[C@H](O)[C@H]1O [D-Fubcβ1,3GalNAcα-O-benzyl] | 1.9 | 416 | inhibition of amaranthin/AOSM precipitation, in words [1]: very good inhibitor; Relative Inhibition potency PNA [2]: 11 |
| C[C@H]1OC(O)[C@H](O)[C@@H](O)[C@H]1O (stereo partly drawn) [D-Fucose] | – | < 0.002 | – |
| CO[C@H]1O[C@H](CO)[C@H](O)[C@H](O[C@@H]2O[C@H](CO)[C@@H](O)[C@H](O)[C@H]2O)[C@H]1NC(C)=O [Gacβ1,3GalNAcα-O-CH3] | 36 | 22 | times less potent than Galβ1,3GalNAcα-O--CH3 ([1]; inhibitor of amaranthin): 10 |
| CC(=O)N[C@H]1[C@@H](O[C@H]2[C@@H](O)[C@@H](CO)OC(O)[C@@H]2O)O[C@H](CO)[C@H](O)[C@@H]1O (some centres unmarked) [GalNAcα1,3Gal] | 310 | 2.5 | – |
| CC(=O)N[C@H]1[C@@H](OC[C@H]2OC(O)[C@H](O)[C@@H](O)[C@H]2O)O[C@H](CO)[C@H](O)[C@@H]1O (some centres unmarked) [GalNAcα1,6Gal] | 210 | 3.8 | – |
| CC(=O)N[C@H]1[C@H](OC[C@H]2OC(O)[C@H](O)[C@@H](O)[C@H]2O)O[C@H](CO)[C@H](O)[C@@H]1O (some centres unmarked) [GalNAcβ1,6Gal] | 1000 | 0.8 | – |
| N[C@H]1C(O)O[C@H](CO)[C@H](O)[C@@H]1O (some centres unmarked) [Galactosamine] | – | < 0.002 | inhibition of amaranthin/AOSM precipitation, in words [1]: very poor inhibitors |
| OC[C@H]1OC(O)[C@H](O)[C@@H](O)[C@H]1O (some centres unmarked) [Galactose] | – | < 0.002 | inhibition of amaranthin/AOSM precipitation, in words [1]: very poor inhibitors; also recorded: not by galactose |
| OC[C@H]1O[C@H](OC[C@H]2OC(O)[C@H](O)[C@@H](O)[C@@H]2O)[C@H](O)[C@@H](O)[C@H]1O (some centres unmarked) [Galα1,6Glc] | – | < 0.008 | – |
| CC(=O)N[C@H]1CO[C@H](CO)[C@H](O)[C@@H]1O[C@@H]1O[C@H](CO)[C@H](O)[C@H](O)[C@H]1O [Galβ1,3(2-acetamido-2-deoxy-1,5-anhydrogalactitol)] | 5.8 | 136 | times less potent than Galβ1,3GalNAc ([1]; inhibitor of amaranthin): 1.7; Relative Inhibition potency PNA [2]: 14 |
| C=CCO[C@H]1O[C@H](CO)[C@H](O)[C@H](O[C@@H]2O[C@H](CO)[C@H](O)[C@H](O)[C@H]2O)[C@H]1NC(C)=O [Galβ1,3GalNAcα-O-CH2 CH = CH2] | 2.1 | 376 | fold more potent than the anomeric β-O-allyl glycoside ([1]; inhibitor of amaranthin): 16; Relative Inhibition potency PNA [2]: 38 |
| CO[C@H]1O[C@H](CO)[C@H](O)[C@H](O[C@@H]2O[C@H](CO)[C@H](O)[C@H](O)[C@H]2O)[C@H]1NC(C)=O [Galβ1,3GalNAcα-O-CH3] | 3.1 | – | Relative Inhibition potency PNA [2]: 47 |
| CC(=O)N[C@H]1[C@@H](Oc2ccccc2[N+](=O)[O-])O[C@H](CO)[C@H](O)[C@@H]1O[C@@H]1O[C@H](CO)[C@H](O)[C@H](O)[C@H]1O [Galβ1,3GalNAcα-O-o-nitrophenyl] | 2.1 | 376 | – |
| COC(=O)CCCCCCCCO[C@H]1O[C@H](CO)[C@H](O)[C@H](O[C@@H]2O[C@H](CO)[C@H](O)[C@H](O)[C@H]2O)[C@H]1NC(C)=O [Galβ1,3GalNAcαO(CH2)8 -CH-CH3] | 1.8 | 439 | Relative Inhibition potency PNA [2]: 47 |
| CO[C@@H]1O[C@H](CO)[C@H](O)[C@H](O[C@@H]2O[C@H](CO)[C@H](O)[C@H](O[C@@H]3O[C@H](CO)[C@H](O)[C@H](O)[C@H]3O)[C@H]2NC(C)=O)[C@H]1O [Galβ1,3GalNAcβ1,3Galβ-O--CH3] | – | < 0.08 | inhibition of amaranthin/AOSM precipitation, in words [1]: poor inhibitor; Relative Inhibition potency PNA [2]: 38 |
| C=CCO[C@@H]1O[C@H](CO)[C@H](O)[C@H](O[C@@H]2O[C@H](CO)[C@H](O)[C@H](O)[C@H]2O)[C@H]1NC(C)=O [Galβ1,3GalNAcβ-O-CH2 -CH = CH2] | 34 | 23 | – |

| Compound | IC50 [1] [µM] | Relative Inhibition potency ACA [1] | further results |
| --- | --- | --- | --- |
| CO[C@H]1O[C@H](CO)[C@H](O)[C@H](O[C@@H]2O[C@H](CO)[C@H](O)[C@H](O)[C@H]2O)[C@H]1O [Galβ1,3Galα-O-CH3] | – | < 0.8 | inhibition of amaranthin/AOSM precipitation, in words [1]: very poor inhibitors; inhibition of PNA, in words [2]: rather good inhibitors; Relative Inhibition potency PNA [2]: 4.2 |
| CC(=O)N[C@H]1C(O)O[C@H](CO)[C@@H](O)[C@@H]1O[C@@H]1O[C@H](CO)[C@H](O)[C@H](O)[C@H]1O (some centres unmarked) [Galβ1,3GlcNAC] | – | < 0.08 | inhibition of amaranthin/AOSM precipitation, in words [1]: very poor inhibitor |
| C=CCO[C@@H]1O[C@H](CO)[C@@H](O)[C@H](O[C@@H]2O[C@H](CO)[C@H](O)[C@H](O)[C@H]2O)[C@H]1NC(C)=O [Galβ1,3GlcNAcβ-O-CH2 --CH--CH2] | – | < 0.08 | – |
| CC(=O)N[C@H]1[C@@H](OCc2ccccc2)O[C@H](CF)[C@H](O)[C@@H]1O[C@@H]1O[C@H](CO)[C@H](O)[C@H](O)[C@H]1O [Galβ1,3[6-F]GalNAcα-O-benzyl] | 1.7 | 465 | inhibition of amaranthin/AOSM precipitation, in words [1]: inhibition is equivalent to Galβ1,3GalNAca-O-benzyl |
| OC[C@H]1O[C@@H](O[C@H]2[C@H](O)[C@@H](O)C(O)O[C@@H]2CO)[C@H](O)[C@@H](O)[C@H]1O (some centres unmarked) [Galβ1,4Glc] | – | < 0.01 | – |
| CC(=O)N[C@H]1[C@H](O[C@H]2[C@@H](O)[C@@H](CF)O[C@H](OCc3ccccc3)[C@@H]2NC(C)=O)O[C@H](CO)[C@@H](O)[C@@H]1O [GlcNAcβ1,3[6-F]GalNAcα-O-benzyl] | – | < 0.08 | – |
| OC[C@H]1OC(O)[C@H](O)[C@@H](O)[C@@H]1O (some centres unmarked) [Glucose] | – | < 0.002 | – |
| CO[C@H]1O[C@H](CO)[C@H](O)[C@H](O)[C@H]1NC(=O)c1ccccc1 [Methyl (2-N-benzamido)-α-galactosaminide] | 850 | 0.9 | – |
| CO[C@H]1O[C@H](CO)[C@H](O)[C@H](O)[C@H]1NC(=O)c1ccc([N+](=O)[O-])cc1 [Methyl (2-N-p-nitrobenzamindo)-α-galactosaminide] | 140 | 5.6 | – |
| CO[C@H]1O[C@H](CO)[C@H](O)[C@H](O)[C@H]1OC(C)=O [Methyl (2-O-acetyl)-α-galactoside] | 2140 | 0.4 | times less potent than GalNAcα-O--CH3 ([1]; inhibitor of amaranthin): 8.6 |
| CO[C@H]1O[C@H](CO)[C@H](O)[C@H](O)[C@H]1OC(=O)c1ccc([N+](=O)[O-])cc1 [Methyl (2-O-p-nitrobenzoate)-α-galactoside] | – | < 0.1 | – |
| CO[C@@H]1C[C@@H](O)[C@@H](O)[C@@H](CO)O1 [Methyl (2-deoxy)-α-galactose] | – | < 0.08 | – |
| CO[C@H]1O[C@H](CO)[C@H](O)[C@H](O)[C@H]1NC(C)=O [Methyl N-acetyl-α-galactosaminide] | 250 | 3.2 | inhibition of amaranthin/AOSM precipitation, in words [1]: best monosaccharide inhibitor |
| CO[C@@H]1O[C@H](CO)[C@H](O)[C@H](O)[C@H]1NC(C)=O [Methyl N-acetyl-β-galactosaminide] | 11300 | 0.07 | – |
| COC(=O)CCCCCCCCO[C@H]1O[C@H](CO)[C@H](O)[C@H](O[C@@H]2O[C@H](CO)[C@H](O)[C@H](O[C@]3(C(=O)O)C[C@H](O)[C@@H](NC(C)=O)[C@H]([C@H](O)[C@H](O)CO)O3)[C@H]2O)[C@H]1NC(C)=O [NeuAcα2,3Galβ1,3GalNAcα-O-(CH2)8 --CO2 CH3] | 1.8 | 439 | inhibition of amaranthin/AOSM precipitation, in words [1]: does not decrease inhibitory potency |
| CC(=O)N[C@H]1[C@@H](Oc2ccc([N+](=O)[O-])cc2)O[C@H](CO)[C@H](O)[C@@H]1O [p-NitrophenylN-acetyl-α-galactosiminide] | 450 | 1.8 | – |
| CC(=O)N[C@H]1[C@H](Oc2ccc([N+](=O)[O-])cc2)O[C@H](CO)[C@H](O)[C@@H]1O [p-NitrophenylN-acetyl-β-Zgalactosaminide] | – | < 0.3 | – |
